The test system of one data set is PC-3 cells. Description: BrdU labeling, DNA synthesis (Cell Proliferation ELISA BrdU). The format is cell-based, human. The note with it: 5 μM compound, 24 hours. As for the experimental part: PC-3 cells were plated in 96-well plates and treated with 5 μM of compound. After 24 hours, the cells were assayed for BrdU labeling using the Cell Proliferation ELISA BrdU kit from Roche; background BrdU incorporation levels (absent anti-BrdU-peroxidase solution) were subtracted and values were normalized to those of control untreated cells.
BrdU Labeling. For the BrdU experiment, PC-3 cells were seeded in 96-well plates at a density of 2×10^3 cells/well, treated with 5 μM of compound for 24 hr and assayed BrdU using the Cell Proliferation ELISA BrdU (chemiluminescence) (Roche Diagnostics, IN) kit according to the manufacturer's protocol. Briefly, 10 μL of 100 μM BrdU labeling solution was added to the cultured cells and were incubated for 1 hr at 37° C., the labeling solution was removed and the FixDenat solution provided with the kit was added for 30 min and incubated at room temperature. Cells were then incubated with anti-BrdU conjugated to peroxidase (1:1500) for 60 min. Finally, the plates were washed and 100 μL of substrate solution was added to each well, and the light emission was measured using a microplate luminometer (Harta Instruments, Inc., Gaithersburg, Md.).
To assess the levels of DNA synthesis within cells treated with mahanine compared to those treated with compounds 6-10, cultured cells were treated according to standard procedure with 5-bromo-2-deoxy-uridine (BrdU) after 24 hours of treatment (FIG. 2).
(In general: Uptake of a labelled nucleoside into DNA is a usual measure of proliferation.)

A further data set deals with PC3 cells. Put plainly: Cell growth assay, trypan blue dye exclusion count. The format is cell-based. As for the experimental part: Cell Line and Cell Growth Assay. Human prostate cancer cell line PC-3 was procured from the American Type Cell Culture Collection (Manassas, Va.). Cells were grown in IMEM without phenol red (Invitrogen, Carlsbad, Calif.) with 10% fetal bovine serum, 2 mM glutamine, 100 U/mL penicillin G sodium, and 100 μg/mL streptomycin sulfate (Sigma, St. Louis, Mo.) in the presence of 5% CO2 at 37° C. For the cell growth experiment, PC-3 cells were seeded in 6-well plates in triplicate with an initial density of 2×10^3 cells per well. Twenty-four hours after seeding, the attached cells were treated with vehicle (DMSO) or 1, 5, 15, 30 and 60 μM compound. After another twenty-four hours, the cells were washed with 1×PBS, trypsinized and re-suspended in complete growth medium. Trypan blue (0.4%) was added to the cell suspension and both live and dead cells were counted using a hemocytometer.
Compounds 6-10 were screened for growth inhibition in PC-3 human prostate cancer cells using previously reported methods (Table 1; Sinha et al. The Prostate. 2006, 66, 1257-1265). […] This was unexpected, since the methyl moiety of mahanine is in the 3-position. Compound 9, with its GI50 value near that of the compound 6 series (compounds 6, 6a, 8) and a deprotected hydroxyl group in the 2-position, implies that whatever hindrance is imposed by a methyl in the 3-position can be partially overcome if steric bulk at the 2-position is reduced. Indeed, looking at the structure of mahanine, the restraint of the ether cycle may provide enough reduction of apparent bulk at the 2-position to moderate its methyl in the 3-position. Additionally, the ether ring system puts the equivalent of a methyl group in the 1-position, which could also be aiding in the low μM activity of mahanine, if the relatively lower values for the compound 6 series are any indication. Moreover, analyzing the structure of compound 10 based on the same criteria, the double-bonded carbon of the ether cycle in the 3-position along with bulk off the 2-position might explain its lesser growth inhibition when compared to mahanine, while the methyl in the 1-position still gives it better activity than compounds 7 and 7a.

Data set [1] deals with DNA methyltransferase (DNMT). Put plainly: DNA methyltransferase activity assay (EpiQuik kit, nuclear extracts of treated PC-3 cells). The format is cell-based, human. Particulars: 72 hours. How it is done:
Black bars: PC-3 cells were treated 72 hours with either mahanine or compound 6a at 5 μM or compound 6, 7, 7a, 8, or 9 at 15 μM and then assayed for DNMT activity using the DNMT activity kit from Epigentek. Data are mean of three independent experiments ±SEM. Grey bars: Densitometry from RT-PCR blot where the amount of RASSF1A mRNA re-expressed by mahanine treatment is normalized to 100%.
DNA methyltransferase activity assay. PC-3 cells were plated in complete growth media, treated with either mahanine or compound 6a at 2 μM or compound 6, 7, 7a, 8, 9, 10 at 15 μM for 3 days and then harvested. Nuclear extracts were prepared according to manufacturer's protocol (Nuclear extraction kit, Epigentek). DNMT activity was measured using an EpiQuik DNA methyltransferase activity assay kit (Epigentek). Results were expressed as percent DNMT activity compared to the DMSO control as 100%.
The levels of DNMT activity in treated versus untreated prostate cancer cells were measured using a DNMT assay kit from Epigentek. […] These reduced DNMT activities correlate with the pattern of RASSF1A induction described above (FIG. 7, grey bars). The data imply that inhibition of DNMT prevents hypermethylation of the RASSF1A promoter region and consequently restores RASSF1A.

A further data set has as its system RASSF1A. Put plainly: RT-PCR of RASSF1A mRNA in treated PC-3 cells. The format is cell-based, human. How it is done: (§1) Representative photograph of an experiment repeated thrice. PC-3 cells were treated 24 hours with either 15 μM for compounds 6, 7, 7a, 8, 9, 10 or 5 μM for compound KED-4-69 (compound 6a) before RNA extraction and RT-PCR amplification.
(§2) Reverse Transcriptase-polymerase Chain Reaction (RT-PCR). From PC-3 cells incubated 24 hours with either 15 μM of compound 6, 7, 7a, 8, 9, 10 or 5 μM of KED-4-69 (compound 6a), RNA was extracted with TRIzol solution (Invitrogen, Carlsbad, Calif.) and genes of interest were amplified using 500 ng of total RNA reverse-transcribed to cDNA using a Superscript II kit (Invitrogen) with random hexamers. Human-specific primers were designed using the Primer Quest program and purchased from Integrated DNA Technologies, Inc. (Coralville, Iowa). Their sequences and product band sizes are: cyclin D1 forward primer 5′-[…]-3′ (SEQ ID NO:1), cyclin D1 reverse primer 5′-[…]-3′ (SEQ ID NO:2) (475 bp) and GAPDH forward primer: 5′-CCA […]-3′ (SEQ ID NO:3), GAPDH reverse primer: 5′-TCTAGACGGCAG GTCAGGTCCACC-3′ (SEQ ID NO:4) (598 bp). PCRs were initiated at 94° C. for 2 min, followed by 28 cycles of 94° C. for 1 min, 1 min annealing temperature, 72° C. for 1 min, and final extension at 72° C. for 5 min. The annealing temperature for cyclin D1 and GAPDH was 60° C. Primers and PCR conditions for RASSF1A are used as described by Rong et al. (Oncogene. 2004, 23, 8216-8230). After amplification, PCR products were separated on 1.5% agarose gels and visualized by ethidium bromide fluorescence using the Fuji LAS-1000 Imager. Images were captured and imported to Adobe Photoshop. Band intensities were quantified by using ImageJ software (NIH, Bethesda, Md.).
(§3) It has been reported that mRNA levels of RASSF1A correlate to its protein expression levels (Rong et al. Oncogene, 2004, 23: 8216-8230). To investigate the effects of the synthetic compounds on RASSF1A and cyclin D1 expression, levels of the respective mRNAs in treated cells compared to control were analyzed (FIG. 3). […] Because overexpression of cyclin D1 is associated with tumorigenicity and proliferation in a variety of tumors, including prostate cancers, this downregulation provides a cancer treatment method (Chen, Y. et al. Oncogene. 1998, 16, 1913-1920; Musgrove, E. A. et al. Proc. Natl. Acad. Sci. USA. 1994, 91, 8022-8026).

The subject of another data set is cyclin D1. Put plainly: RT-PCR of cyclin D1 mRNA in treated PC-3 cells. The format is cell-based, human. How it is done: as §1, §2, §3
[2] abbreviates: Homo sapiens, PC-3, concentration for 50% growth inhibition in PC3 cells, 24 hours of treatment, mean ± SEM of three observations, read-out: GI50.
[3] abbreviates: mahanine, concentration not given.

Read-outs that look alike come from different tables or passages of the source.

Broadly, the GI50 is the concentration at which growth is held to half of that of the control.

Regarding `COc1ccc2c(c1)[nH]c1c(C)c(O)ccc12` [Compound 8, 7-Methoxy-1-methyl-9H-carbazol-2-ol], the “DNA synthetic ability (BrdU labeling)” value in the data set with PC-3 cells was “no change in the DNA synthetic ability”. In the data set with PC3 cells (Homo sapiens, PC-3, 24 h), this compound returned a GI50 of 18.7 ± 1.8 µM. Besides, in data set [1] (15 μM), the “DNMT activity versus DMSO control” value is on record as “slight decrease in DNMT activity”.

Consider `COc1ccc2c(c1)[nH]c1cc(O)c(C)cc12` [Compound 9, 7-Methoxy-3-methyl-9H-carbazol-2-ol], for which the “DNA synthetic ability (BrdU labeling)” value in the data set on PC-3 cells is given as “decrease in DNA synthetic ability”. For the same compound, the GI50 with PC3 cells (setting [2]) was 15.3 ± 2.8 µM. In data set [1] (15 μM), the “DNMT activity versus DMSO control” value is on record as “slight decrease in DNMT activity”.

For mahanine [reference compound], the “DNA synthetic ability (BrdU labeling)” value in the data set on PC-3 cells was “decrease in DNA synthetic ability”. Moreover, the “RASSF1A mRNA level versus control” value with RASSF1A (setting [3]) was “significant increase in RASSF1A”. Moreover, in the data set with PC3 cells (PC-3 cells), the “doses at which cytotoxic” value is “above 5 μM”. Besides, the GI50 with PC3 cells (concentration for 50% growth inhibition in PC3 cells, 24 hours of treatment, mean ± SEM of three observations, read-out: GI50) was 2.5 ± 0.18 µM. In addition, the “cyclin D1 mRNA level versus control” value in the data set with cyclin D1 (setting [3]) is on record as “corresponding decrease in cyclin D1”. For the same compound, the “DNMT activity versus DMSO control” value in data set [1] (5 μM (FIG. 7 legend; method says 2 μM)) is “Significant inhibition of DNMT activity”.

On to `COc1ccc2c(c1)[nH]c1cc(OCc3ccccc3)c(C)cc12` [Compound 7, 2-(benzyloxy)-7-methoxy-3-methyl-9H-carbazole], for which the “RASSF1A mRNA level versus control” value in the data set on RASSF1A (15 μM, 24 hours) is reported as “no change in expression levels from control”. For the same compound, the GI50 with PC3 cells (setting [2]) was determined as 48.9 ± 1.1 µM. Also, in the data set on cyclin D1 (15 μM, 24 hours), the “cyclin D1 mRNA level versus control” value was “no change in expression levels from control”.

On to `COc1ccc2c(c1)[nH]c1cc(OS(=O)(=O)c3cccc4c(N(C)C)cccc34)c(C)cc12` [Compound 7a, 7-Methoxy-3-methyl-9H-carbazol-2-yl 5-(dimethylamino)naphthalene-1-sulfonate], for which, in the data set with RASSF1A (15 μM, 24 hours), the “RASSF1A mRNA level versus control” value was “no change in expression levels from control”. The GI50 in the data set with PC3 cells (setting [2]) was 22.9 ± 4.5 µM. Further, the “cyclin D1 mRNA level versus control” value in the data set with cyclin D1 (15 μM, 24 hours) is “no change in expression levels from control”.

Consider `COc1ccc2c(c1)[nH]c1c(C)c(OCc3ccccc3)ccc12` [Compound 6, 2-(Benzyloxy)-7-methoxy-1-methyl-9H-carbazole], for which, in the data set on PC-3 cells, the “DNA synthetic ability (BrdU labeling)” value is “decrease in DNA synthetic ability”. Also, in the data set with RASSF1A (15 μM, 24 hours), the “RASSF1A mRNA level versus control” value is “significant increase in RASSF1A”. Moreover, the GI50 with PC3 cells (setting [2]) was 17.6 ± 2.7 µM. In the data set with cyclin D1 (15 μM, 24 hours), the “cyclin D1 mRNA level versus control” value is reported as “corresponding decrease in cyclin D1”. Besides, in data set [1] (15 μM), the “DNMT activity versus DMSO control” value was “Significant inhibition of DNMT activity”.

The values are drawn from US10457639B2, “Fluorescent regulators of RASSF1A expression and human cancer cell proliferation” (GEORGETOWN UNIVERSITY, priority 2008, dated 2019).
